Measured values taken from US8766005B2, “Process for producing fingolimod salts” (Ratiopharm GmbH, priority 2009, dated 2014).

Test: dissolution profile before and after storage
Type: physicochemical
Settings: during shelf life

For `CCCCCCCCc1ccc(CCC(N)(CO)CO)cc1.Cl` [polymorphic form B, fingolimod hydrochloride], the “dissolution profile before and after storage” value was “constant”.
